# From PMC7576493, “Novel ANO1 Inhibitor from Mallotus apelta Extract Exerts Anticancer Activity through Downregulation of ANO1” (International Journal of Molecular Sciences, 2020)
# How the values were obtained:
# [1] = biological target: T1, Anoctamin1 (ANO1) (Homo sapiens, UniProt Q5XXA6); assay: apical membrane (short-circuit) current in FRT cells expressing human ANO1; also YFP quenching assay; format: cell-based
# T1 sequence (Q5XXA6 1-986): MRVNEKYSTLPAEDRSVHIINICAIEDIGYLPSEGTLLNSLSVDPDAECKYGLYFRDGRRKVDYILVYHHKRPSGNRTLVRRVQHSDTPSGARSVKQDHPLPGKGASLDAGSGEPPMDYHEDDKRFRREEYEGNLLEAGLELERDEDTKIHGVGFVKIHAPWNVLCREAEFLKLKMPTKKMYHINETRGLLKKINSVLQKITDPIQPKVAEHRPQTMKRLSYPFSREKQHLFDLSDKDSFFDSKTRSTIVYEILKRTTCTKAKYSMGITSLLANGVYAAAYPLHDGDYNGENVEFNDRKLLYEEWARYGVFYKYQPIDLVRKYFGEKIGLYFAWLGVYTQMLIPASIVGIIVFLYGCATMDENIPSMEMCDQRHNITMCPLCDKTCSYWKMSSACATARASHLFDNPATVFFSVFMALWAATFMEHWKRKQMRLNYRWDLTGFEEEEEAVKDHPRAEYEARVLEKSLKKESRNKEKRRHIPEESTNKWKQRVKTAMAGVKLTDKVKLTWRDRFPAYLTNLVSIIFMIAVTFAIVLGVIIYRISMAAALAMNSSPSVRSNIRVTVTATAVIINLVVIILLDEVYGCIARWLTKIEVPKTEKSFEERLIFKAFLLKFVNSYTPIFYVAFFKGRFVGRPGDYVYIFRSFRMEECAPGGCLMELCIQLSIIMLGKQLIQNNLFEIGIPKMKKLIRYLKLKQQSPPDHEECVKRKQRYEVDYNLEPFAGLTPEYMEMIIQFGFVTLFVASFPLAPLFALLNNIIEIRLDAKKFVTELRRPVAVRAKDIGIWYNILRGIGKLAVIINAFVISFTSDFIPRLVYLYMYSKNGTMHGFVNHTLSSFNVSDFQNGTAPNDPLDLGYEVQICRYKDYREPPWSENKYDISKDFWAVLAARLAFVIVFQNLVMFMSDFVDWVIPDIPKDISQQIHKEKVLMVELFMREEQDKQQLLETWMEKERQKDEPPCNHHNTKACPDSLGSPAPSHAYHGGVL
# [2] = biological target: T1, Anoctamin1 (ANO1); assay: YFP (F46L/H148Q/I152L) quenching iodide influx assay in FRT cells expressing human ANO1; […] inhibition at […]; format: cell-based
IC50 [1] [nM],inhibition at 25 µM [2] [%],Compound
2640,,"COc1cc2c(c(OC)c1C(=O)CC(O)c1ccccc1)C=CC(C)(C)O2 (racemic) [compound 2, Ani-D2]"
,> 99,"COc1cc2c(c(OC)c1C(=O)/C=C/c1ccccc1)C=CC(C)(C)O2 [compound 1, Ani-D1]"
